According to US5972958A, “4-aminoalkoxy-1,3-dihydro-benzoimidazol-2-thiones” (American Home Products Corporation, priority 1998, dated 1999):

Tests used:
dopamine D2 receptor [1] = target: T1, dopamine D2 receptor (Rattus norvegicus, UniProt P61169); assay: Affinity for the dopamine autoreceptor, 3H-quinpirole (D2 Quin.) binding in homogenized rat striatal brain tissue; parameters: homogenized rat striatal brain tissue; from tissue; host or cells: rat striatal brain tissue (homogenate); details: high-affinity agonist state
T1 sequence (P61169 whole entry): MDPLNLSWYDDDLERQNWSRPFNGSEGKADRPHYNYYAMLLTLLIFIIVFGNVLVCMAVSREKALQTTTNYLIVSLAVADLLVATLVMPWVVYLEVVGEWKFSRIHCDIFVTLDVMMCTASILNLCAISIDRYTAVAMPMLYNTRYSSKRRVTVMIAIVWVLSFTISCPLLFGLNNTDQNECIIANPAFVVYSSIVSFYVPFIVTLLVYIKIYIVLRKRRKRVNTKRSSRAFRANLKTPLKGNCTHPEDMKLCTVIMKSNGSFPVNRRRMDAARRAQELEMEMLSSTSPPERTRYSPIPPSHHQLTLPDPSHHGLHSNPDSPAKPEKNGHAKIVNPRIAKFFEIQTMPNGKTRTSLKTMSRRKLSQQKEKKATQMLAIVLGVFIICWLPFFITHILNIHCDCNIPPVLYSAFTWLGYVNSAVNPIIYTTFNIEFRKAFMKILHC
Procedure: Affinity for the dopamine autoreceptor was established by a modification of the standard experimental test procedure of Seemen and Schaus, European Journal of Pharmacology 203: 105-109, 1991, wherein homogenized rat striatal brain tissue is incubated with ^3 H-quinpirole (Quin.) and various concentrations of test compound, filtered and washed and counted in a Betaplate scintillation counter.

dopamine D2 receptor [2] = target: T1, dopamine D2 receptor; assay: Affinity for the dopamine D-2 receptor, 3H-spiroperidol (D2 Spiper) binding in homogenized limbic brain tissue; parameters: homogenized limbic brain tissue; from tissue; host or cells: limbic brain tissue (homogenate); details: low-affinity agonist state
Procedure: High affinity for the dopamine D-2 receptor was established by the standard experimental test procedure of Fields, et al., Brain Res., 136, 578 (1977) and Yamamura et al., eds., Neurotransmitter Receptor Binding, Raven Press, N.Y. (1978) wherein homogenized limbic brain tissue is incubated with ^3 H-spiroperidol (Spiper.) and various concentrations of test compound, filtered and washed and shaken with Hydrofluor scintillation cocktail (National Diagnostics) and counted in a Packard 460 CD scintillation counter.

Compound | IC50 (dopamine D2 receptor [1]) [nM] | IC50 (dopamine D2 receptor [2]) [nM]
S=c1[nH]c2cccc(OCCN3CCc4ccccc4C3)c2[nH]1 [Example 10, 4-[2-(3,4-Dihydro-1H-isoquinolin-2-yl)-ethoxy]-1,3-dihydro-benzoimidazole-2-thione] | 2.67 | 234
S=c1[nH]c2cc(Cl)cc(OCCNCc3ccsc3)c2[nH]1 [Example 9, 6-Chloro-4-{2-[(thiophen-3-ylmethyl)-amino]-ethoxy}-1,3-dihydro-benzoimidazole-2-thione] | 0.18 | 85
CC(C)(C)c1ccc(CNCCOc2cccc3[nH]c(=S)[nH]c23)cc1 [Example 5, 4-[2-(4-tert-Butyl-benzylamino)-ethoxy]-1,3-dihydro-benzoimidazole-2-thione] | 0.82 | 6.87
Cc1ccc(CNCCOc2cccc3[nH]c(=S)[nH]c23)cc1 [Example 2, 4-[2-(4-Methyl-benzylamino)-ethoxy]-1,3-dihydro-benzoimidazole-2-thione] | 0.42 | 37.7
Sc1nc2c(OCCNCc3ccccc3)cc(Cl)cc2[nH]1 [Example 7, 4-(2-Benzylamino-ethoxy)-6-chloro-1,3-dihydro-benzoimidazole-2-thione] | 0.39 | 57
S=c1[nH]c2cc(Cl)cc(OCCNCc3cccs3)c2[nH]1 [Example 8, 6-Chloro-4-{2-[(thiophen-2-ylmethyl)-amino]-ethoxy}-1,3-dihydro-benzoimidazole-2-thione] | 0.37 | 88
S=c1[nH]c2cccc(OCCNCc3ccc(Cl)cc3)c2[nH]1 [Example 6, 4-[2-(4-Chloro-benzylamino)-ethoxy]-1,3-dihydro-benzoimidazole-2-thione] | 0.21 | 88
S=c1[nH]c2cccc(OCCNCc3cccc4ccccc34)c2[nH]1 [Example 4, 4-{2-[(Naphthalen-1-ylmethyl)-amino]-ethoxy}-1,3-dihydro-benzoimidazole-2-thione] | 0.43 | 36.9
S=c1[nH]c2cccc(OCCNCc3ccccc3)c2[nH]1 [Example 1, 4-(2-Benzylamino-ethoxy)-1,3-dihydro-benzoimidazol-2-thione] | 0.36 | 33.4
S=c1[nH]c2cccc(OCCCNCc3ccccc3)c2[nH]1 [Example 3] | 14.9 | 1190
